Measured values published in PubChem BioAssay (NCI).
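Method: 48-hour compound exposure of cells in 96-well plates, five concentrations, linear interpolation of endpoints. The concentration for 50% growth inhibition is given as GI50. TGI is the concentration that stops growth completely.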

Key:
Experiment in all cases: inhibition of tumour cell growth, NCI panel, 48 h
[1] = test system: 786-0 renal
[2] = test system: A498 renal
[3] = test system: A549 NSCLC
[4] = test system: ACHN renal
[5] = test system: BT-549 breast
[6] = test system: CAKI-1 renal
[7] = test system: CCRF-CEM leukemia
[8] = test system: DU-145 prostate
[9] = test system: EKVX NSCLC
[10] = test system: HCC-2998 colon
[11] = test system: HCT-116 colon
[12] = test system: HCT-15 colon
[13] = test system: HL-60(TB) leukemia
[14] = test system: HOP-62 NSCLC
[15] = test system: HOP-92 NSCLC
[16] = test system: HS 578T breast
[17] = test system: HT29 colon
[18] = test system: IGROV1 ovarian
[19] = test system: K-562 leukemia
[20] = test system: KM12 colon
[21] = test system: LOX IMVI melanoma
[22] = test system: M14 melanoma
[23] = test system: MALME-3M melanoma
[24] = test system: MCF7 breast
[25] = test system: MDA-MB-231 breast
[26] = test system: MDA-MB-435
[27] = test system: MOLT-4 leukemia
[28] = test system: NCI-H226 lung
[29] = test system: NCI-H23 lung
[30] = test system: NCI-H460 lung
[31] = test system: NCI-H522 lung
[32] = test system: NCI/ADR-RES ovarian
[33] = test system: OVCAR-3 ovarian
[34] = test system: OVCAR-4 ovarian
[35] = test system: OVCAR-5 ovarian
[36] = test system: OVCAR-8 ovarian
[37] = test system: PC-3 prostate
[38] = test system: RPMI-8226 leukemia
[39] = test system: RXF 393 renal
[40] = test system: SF-268 CNS
[41] = test system: SF-295 CNS
[42] = test system: SF-539 CNS
[43] = test system: SK-MEL-2 melanoma
[44] = test system: SK-MEL-28 melanoma
[45] = test system: SK-MEL-5 melanoma
[46] = test system: SK-OV-3 ovarian
[47] = test system: SN12C renal
[48] = test system: SNB-19 CNS
[49] = test system: SNB-75 CNS
[50] = test system: SR leukemia
[51] = test system: SW-620 colon
[52] = test system: T-47D breast
[53] = test system: TK-10 renal
[54] = test system: U251 CNS
[55] = test system: UACC-257 melanoma
[56] = test system: UACC-62 melanoma
[57] = test system: UO-31 renal

With `O=C1N[C@@H]2[C@@H](O)[C@@H](O)[C@H](O)C[C@H]2c2cc3c(c(O)c21)OCO3` the GI50 [1] was 174 nM, the TGI [1] was 1590 nM and the GI50 [2] was 200 nM. It also gave a TGI [2] of 541 nM, a GI50 [3] of 185 nM and a TGI [3] of 2230 nM. It also gave a GI50 [4] of 132 nM, a TGI [4] of 825 nM and a GI50 [5] of 206 nM. The TGI [5] was 803 nM, the GI50 [6] was 142 nM and the TGI [6] was 1160 nM. It also gave a GI50 [7] of 105 nM, a GI50 [8] of 90.7 nM and a TGI [8] of 647 nM. For the same compound, the GI50 [9] was 193 nM, the TGI [9] was 1260 nM and the GI50 [10] was 95.7 nM. It also gave a TGI [10] of 418 nM, a GI50 [11] of 66 nM and a TGI [11] of 1070 nM. For the same compound, the GI50 [12] was 116 nM, the TGI [12] was 1300 nM and the GI50 [13] was 97.3 nM. It also gave a TGI [13] of 472 nM, a GI50 [14] of 97.7 nM and a TGI [14] of 883 nM. It also gave a GI50 [15] of 86.8 nM, a TGI [15] of 890 nM and a GI50 [16] of 113 nM. The TGI [16] was 713 nM, the GI50 [17] was 119 nM and the TGI [17] was 1050 nM. For the same compound, the GI50 [18] was 207 nM, the TGI [18] was 1470 nM and the GI50 [19] was 83.4 nM. The TGI [19] was > 100000 nM, the GI50 [20] was 77.8 nM and the TGI [20] was 584 nM. For the same compound, the GI50 [21] was 53.6 nM, the TGI [21] was 224 nM and the GI50 [22] was 81.3 nM. The TGI [22] was 357 nM, the GI50 [23] was 128 nM and the TGI [23] was 537 nM. For the same compound, the GI50 [24] was 65.6 nM, the TGI [24] was 881 nM and the GI50 [25] was 136 nM. For the same compound, the TGI [25] was 926 nM, the GI50 [26] was 113 nM and the TGI [26] was 648 nM. The GI50 [27] was 143 nM, the TGI [27] was > 100000 nM and the GI50 [28] was 128 nM. The TGI [28] was 699 nM, the GI50 [29] was 102 nM and the TGI [29] was 544 nM. It also gave a GI50 [30] of 83.8 nM, a TGI [30] of 743 nM and a GI50 [31] of 85.2 nM. The TGI [31] was 527 nM, the GI50 [32] was 223 nM and the TGI [32] was 1650 nM. It also gave a GI50 [33] of 147 nM, a TGI [33] of 794 nM and a GI50 [34] of 99.4 nM. For the same compound, the TGI [34] was 975 nM, the GI50 [35] was 238 nM and the TGI [35] was 1610 nM. For the same compound, the GI50 [36] was 100 nM, the TGI [36] was 1390 nM and the GI50 [37] was 193 nM. It also gave a TGI [37] of 1630 nM, a GI50 [38] of 169 nM and a TGI [38] of 687 nM. The GI50 [39] was 131 nM, the TGI [39] was 562 nM and the GI50 [40] was 144 nM. It also gave a TGI [40] of 991 nM, a GI50 [41] of 157 nM and a TGI [41] of 1050 nM. For the same compound, the GI50 [42] was 101 nM, the TGI [42] was 548 nM and the GI50 [43] was 98.4 nM. The TGI [43] was 415 nM, the GI50 [44] was 96.5 nM and the TGI [44] was 608 nM. It also gave a GI50 [45] of 84.1 nM, a TGI [45] of 344 nM and a GI50 [46] of 211 nM. The TGI [46] was 2100 nM, the GI50 [47] was 93.6 nM and the TGI [47] was 1030 nM. It also gave a GI50 [48] of 73.7 nM, a TGI [48] of 899 nM and a GI50 [49] of 89.8 nM. For the same compound, the TGI [49] was 861 nM, the GI50 [50] was 103 nM and the TGI [50] was > 100000 nM. For the same compound, the GI50 [51] was 91.8 nM, the TGI [51] was 3260 nM and the GI50 [52] was 79.9 nM. For the same compound, the TGI [52] was 2120 nM, the GI50 [53] was 264 nM and the TGI [53] was 1730 nM. The GI50 [54] was 73.6 nM, the TGI [54] was 1060 nM and the GI50 [55] was 131 nM. The TGI [55] was 894 nM, the GI50 [56] was 178 nM and the TGI [56] was 830 nM. It also gave a GI50 [57] of 147 nM and a TGI [57] of 1110 nM.
